The values that follow come from patent US20070082880A1 (priority 2005, published 2007).

For this test, the target named is T1, human PKCθ full length enzyme (Homo sapiens, UniProt Q04759).
T1 construct: human PKCθ full length enzyme (Panvera Catalog No. P2996); purchased Panvera P2996
T1 sequence (Q04759 whole entry): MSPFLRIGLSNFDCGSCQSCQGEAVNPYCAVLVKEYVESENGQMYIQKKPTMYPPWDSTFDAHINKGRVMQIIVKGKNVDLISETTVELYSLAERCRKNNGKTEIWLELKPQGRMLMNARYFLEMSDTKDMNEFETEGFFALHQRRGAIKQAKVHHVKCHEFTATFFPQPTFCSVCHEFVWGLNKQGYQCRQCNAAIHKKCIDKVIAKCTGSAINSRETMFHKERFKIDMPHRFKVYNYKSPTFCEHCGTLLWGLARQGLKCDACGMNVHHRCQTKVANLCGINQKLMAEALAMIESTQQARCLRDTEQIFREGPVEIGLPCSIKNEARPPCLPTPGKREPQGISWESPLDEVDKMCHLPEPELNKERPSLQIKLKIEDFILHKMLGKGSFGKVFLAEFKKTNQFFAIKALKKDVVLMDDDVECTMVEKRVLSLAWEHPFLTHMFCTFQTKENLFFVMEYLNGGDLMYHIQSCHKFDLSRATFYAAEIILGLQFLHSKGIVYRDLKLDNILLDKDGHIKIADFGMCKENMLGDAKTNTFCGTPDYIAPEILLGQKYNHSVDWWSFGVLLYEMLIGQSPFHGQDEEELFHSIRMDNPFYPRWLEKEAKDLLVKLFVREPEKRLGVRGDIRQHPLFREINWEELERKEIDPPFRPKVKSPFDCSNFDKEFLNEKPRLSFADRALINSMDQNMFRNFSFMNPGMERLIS
Put plainly: PKCθ IMAP Assay. The class given is biochemical. The following applies: average value when one or more samples were tested; ATP 6 uM, PKCθ 1 nM. The gist of the method:
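Full-length human PKCθ (1 nM final) with 6 uM ATP and 100 nM 5FAM-labelled peptide, 5% DMSO, 3.0 mM DTT in reaction buffer. 25 min at room temperature; IMAP bead binding 20 min, fluorescence polarization read. Compounds 2:1 serially diluted; no-ATP and no-enzyme wells as controls.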
The molecule `Cc1c(Nc2c(C#N)cnc3sc(/C=C/CN4CCN(C)CC4)cc23)ccc2[nH]ccc12` [Compound 278, 4-[(4-methyl-1H-indol-5-yl)amino]-2-[(1E)-3-(4-methylpiperazin-1-yl)prop-1-en-1-yl]thieno[2,3-b]pyridine-5-carbonitrile] gave an IC50 of 12 nM.
Then `Cc1c(Nc2c(C#N)cnc3sc(/C=C/CN4CCN(C)CC4)c(C)c23)ccc2[nH]ccc12` [Compound 279, 3-methyl-4-[(4-methyl-1H-indol-5-yl)amino]-2-[(1E)-3-(4-methylpiperazin-1-yl)prop-1-en-1-yl]thieno[2,3-b]pyridine-5-carbonitrile], with 17 nM.
Next, `CCOC(=O)/C=C/c1cc2c(Nc3ccc4[nH]ccc4c3C)c(C#N)cnc2s1` [Compound 282, ethyl (2E)-3-{5-cyano-4-[(4-methyl-1H-indol-5-yl)amino]thieno[2,3-b]pyridin-2-yl}acrylate]: 23 nM; `Cc1c(Nc2c(C#N)cnc3sc(/C=C/C(=O)OC(C)(C)C)cc23)ccc2[nH]ccc12` [Compound 286, tert-butyl (2E)-3-{5-cyano-4-[(4-methyl-1H-indol-5-yl)amino]thieno[2,3-b]pyridin-2-yl}acrylate]: 314 nM; `N#Cc1cnc2sc(/C=C/C(=O)N3CCCC3)cc2c1Nc1ccc2[nH]ccc2c1` [Compound 288, 4-(1H-indol-5-ylamino)-2-[(1E)-3-oxo-3-pyrrolidin-1-ylprop-1-en-1-yl]thieno[2,3-b]pyridine-5-carbonitrile]: 130 nM.
`N#Cc1cnc2sc(/C=C/C(=O)NCCO)cc2c1Nc1ccc2[nH]ccc2c1` [Compound 289, (2E)-3-[5-cyano-4-(1H-indol-5-ylamino)thieno[2,3-b]pyridin-2-yl]-N-(2-hydroxyethyl)acrylamide] showed an IC50 of 2070 nM.
Next, `CN1CCN(C(=O)/C=C/c2cc3c(Nc4ccc5[nH]ccc5c4)c(C#N)cnc3s2)CC1` [Compound 290, 4-(1H-indol-5-ylamino)-2-[(1E)-3-(4-methylpiperazin-1-yl)-3-oxoprop-1-en-1-yl]thieno[2,3-b]pyridine-5-carbonitrile]: 330 nM.
As for `CC1CCCN1C(=O)/C=C/c1cc2c(Nc3ccc4[nH]ccc4c3)c(C#N)cnc2s1` (centres unmarked) [Compound 291, 4-(1H-indol-5-ylamino)-2-[(1E)-3-(2-methylpyrrolidin-1-yl)-3-oxoprop-1-en-1-yl]thieno[2,3-b]pyridine-5-carbonitrile], the IC50 was determined as 105 nM.
`N#Cc1cnc2sc(/C=C/C(N)=O)cc2c1Nc1ccc2[nH]ccc2c1` [Compound 292, (2E)-3-[5-cyano-4-(1H-indol-5-ylamino)thieno[2,3-b]pyridin-2-yl]acrylamide] came in with an IC50 of 183 nM.
`N#Cc1cnc2sc(/C=C/C(=O)Nc3cccnc3)cc2c1Nc1ccc2[nH]ccc2c1` [Compound 293, (2E)-3-[5-cyano-4-(1H-indol-5-ylamino)thieno[2,3-b]pyridin-2-yl]-N-pyridin-3-ylacrylamide]: the IC50 was determined as 33600 nM.
Next, `Cc1c(Nc2c(C#N)cnc3sc(/C=C/C(=O)N4CCCC4)cc23)ccc2[nH]ccc12` [Compound 294, 4-[(4-methyl-1H-indol-5-yl)amino]-2-[(1E)-3-oxo-3-pyrrolidin-1-ylprop-1-en-1-yl]thieno[2,3-b]pyridine-5-carbonitrile]: 4 nM.
Then `Cc1c(Nc2c(C#N)cnc3sc(/C=C/C(=O)N4CCN(C)CC4)cc23)ccc2[nH]ccc12` [Compound 295, 4-[(4-methyl-1H-indol-5-yl)amino]-2-[(1E)-3-(4-methylpiperazin-1-yl)-3-oxoprop-1-en-1-yl]thieno[2,3-b]pyridine-5-carbonitrile], with 43 nM; and `Cc1c(Nc2c(C#N)cnc3sc(/C=C/C(=O)Nc4cccnc4)cc23)ccc2[nH]ccc12` [Compound 296, (2E)-3-{5-cyano-4-[(4-methyl-1H-indol-5-yl)amino]thieno[2,3-b]pyridin-2-yl}-N-pyridin-3-ylacrylamide], with 17 nM.
Molecule `Cc1c(Nc2c(C#N)cnc3sc(/C=C/C(N)=O)cc23)ccc2[nH]ccc12` [Compound 297, (2E)-3-{5-cyano-4-[(4-methyl-1H-indol-5-yl)amino]thieno[2,3-b]pyridin-2-yl}acrylamide] came in with an IC50 of 12 nM.
Next, `Cc1c(Nc2c(C#N)cnc3sc(/C=C/C(=O)N4CCCCC4)cc23)ccc2[nH]ccc12` [Compound 298, 4-[(4-methyl-1H-indol-5-yl)amino]-2-[(1E)-3-oxo-3-piperidin-1-ylprop-1-en-1-yl]thieno[2,3-b]pyridine-5-carbonitrile]: 48 nM; `Cc1c(Nc2c(C#N)cnc3sc(/C=C/C(=O)N4CCC[C@H]4CN4CCCC4)cc23)ccc2[nH]ccc12` [Compound 299, 4-[(4-methyl-1H-indol-5-yl)amino]-2-{(1E)-3-oxo-3-[(2S)-2-(pyrrolidin-1-ylmethyl)pyrrolidin-1-yl]prop-1-en-1-yl}thieno[2,3-b]pyridine-5-carbonitrile]: 32 nM; `Cc1c(Nc2c(C#N)cnc3sc(/C=C/C(=O)N4CC[C@@H](N(C)C)C4)cc23)ccc2[nH]ccc12` [Compound 300, 2-{(1E)-3-[(3R)-3-(dimethylamino)pyrrolidin-1-yl]-3-oxoprop-1-en-1-yl}-4-[(4-methyl-1H-indol-5-yl)amino]thieno[2,3-b]pyridine-5-carbonitrile]: 175 nM.
The molecule `Cc1c(Nc2c(C#N)cnc3sc(/C=C/C(=O)N4CC[C@H](N(C)C)C4)cc23)ccc2[nH]ccc12` [Compound 301, 2-{(1E)-3-[(3S)-3-(dimethylamino)pyrrolidin-1-yl]-3-oxoprop-1-en-1-yl}-4-[(4-methyl-1H-indol-5-yl)amino]thieno[2,3-b]pyridine-5-carbonitrile] yielded an IC50 of 171 nM.
Next, `Cc1c(Nc2c(C#N)cnc3sc(/C=C/C(=O)N4CCCC4)c(C)c23)ccc2[nH]ccc12` [Compound 302, 3-methyl-4-[(4-methyl-1H-indol-5-yl)amino]-2-[(1E)-3-oxo-3-pyrrolidin-1-ylprop-1-en-1-yl]thieno[2,3-b]pyridine-5-carbonitrile]: 4 nM; `Cc1c(Nc2c(C#N)cnc3sc(/C=C/C(=O)Nc4ccccc4)cc23)ccc2[nH]ccc12` [Compound 303, (2E)-3-{5-cyano-4-[(4-methyl-1H-indol-5-yl)amino]thieno[2,3-b]pyridin-2-yl}-N-phenylacrylamide]: 111 nM; `Cc1c(Nc2c(C#N)cnc3sc(/C=C/C(=O)Nc4ccncc4)cc23)ccc2[nH]ccc12` [Compound 304, (2E)-3-{5-cyano-4-[(4-methyl-1H-indol-5-yl)amino]thieno[2,3-b]pyridin-2-yl}-N-pyridin-4-ylacrylamide]: 43 nM.
Next, `Cc1c(Nc2c(C#N)cnc3sc(/C=C/C(=O)N(C)C)cc23)ccc2[nH]ccc12` [Compound 305, (2E)-3-{5-cyano-4-[(4-methyl-1H-indol-5-yl)amino]thieno[2,3-b]pyridin-2-yl}-N,N-dimethylacrylamide]: 2 nM; `CCN(CC)C(=O)/C=C/c1cc2c(Nc3ccc4[nH]ccc4c3C)c(C#N)cnc2s1` [Compound 306, (2E)-3-{5-cyano-4-[(4-methyl-1H-indol-5-yl)amino]thieno[2,3-b]pyridin-2-yl}-N,N-diethylacrylamide]: 2 nM.
Regarding `CCNC(=O)/C=C/c1cc2c(Nc3ccc4[nH]ccc4c3C)c(C#N)cnc2s1` [Compound 307, (2E)-3-{5-cyano-4-[(4-methyl-1H-indol-5-yl)amino]thieno[2,3-b]pyridin-2-yl}-N-ethylacrylamide], the IC50 turned out to be 15 nM.
Next, `COCCNC(=O)/C=C/c1cc2c(Nc3ccc4[nH]ccc4c3C)c(C#N)cnc2s1` [Compound 308, (2E)-3-{5-cyano-4-[(4-methyl-1H-indol-5-yl)amino]thieno[2,3-b]pyridin-2-yl}-N-(2-methoxyethyl)acrylamide]: 48 nM; `Cc1c(Nc2c(C#N)cnc3sc(/C=C/C(=O)N4CCOCC4)cc23)ccc2[nH]ccc12` [Compound 309, 4-[(4-methyl-1H-indol-5-yl)amino]-2-[(1E)-3-morpholin-4-yl-3-oxoprop-1-en-1-yl]thieno[2,3-b]pyridine-5-carbonitrile]: 53 nM; `Cc1c(Nc2c(C#N)cnc3sc(/C=C/C(=O)N4CCC(O)C4)cc23)ccc2[nH]ccc12` (centres unmarked) [Compound 310, 2-[(1E)-3-(3-hydroxypyrrolidin-1-yl)-3-oxoprop-1-en-1-yl]-4-[(4-methyl-1H-indol-5-yl)amino]thieno[2,3-b]pyridine-5-carbonitrile]: 41 nM.
As for `Cc1c(Nc2c(C#N)cnc3sc(/C=C/C(=O)N4CCNCC4)cc23)ccc2[nH]ccc12` [Compound 311, 4-[(4-methyl-1H-indol-5-yl)amino]-2-[(1E)-3-oxo-3-piperazin-1-ylprop-1-en-1-yl]thieno[2,3-b]pyridine-5-carbonitrile], the midpoint of inhibition, the IC50, lay at 88 nM.
Then `Cc1c(Nc2c(C#N)cnc3sc(/C=C/C(=O)N(C)CCN(C)C)cc23)ccc2[nH]ccc12` [Compound 312, (2E)-3-{5-cyano-4-[(4-methyl-1H-indol-5-yl)amino]thieno[2,3-b]pyridin-2-yl}-N-[2-(dimethylamino)ethyl]-N-methylacrylamide], with 151 nM; and `Cc1c(Nc2c(C#N)cnc3sc(/C=C/C(=O)NN(C)C)cc23)ccc2[nH]ccc12` [Compound 313, (2E)-3-{5-cyano-4-[(4-methyl-1H-indol-5-yl)amino]thieno[2,3-b]pyridin-2-yl}-N′,N′-dimethylacrylohydrazide], with 104 nM.
As to `Cc1c(Nc2c(C#N)cnc3sc(/C=C/C(=O)NN4CCCC4)cc23)ccc2[nH]ccc12` [Compound 314, (2E)-3-{5-cyano-4-[(4-methyl-1H-indol-5-yl)amino]thieno[2,3-b]pyridin-2-yl}-N-pyrrolidin-1-ylacrylamide], the IC50 worked out at 375 nM.
Next, `Cc1c(I)sc2ncc(C#N)c(Nc3ccc4[nH]ccc4c3)c12` [Compound 317, 4-(1H-Indol-5-ylamino)-2-iodo-3-methylthieno[2,3-b]pyridine-5-carbonitrile]: 718 nM.
